Consider 32 compounds from patent US20100137313A1 (ASTRAZENECA AB, priority 2008, published 2010).

SMILES strings stand for the structures.

Chain of S. pneumoniae Topoisomerase IV ATPase (ParE) (Q59961 whole entry): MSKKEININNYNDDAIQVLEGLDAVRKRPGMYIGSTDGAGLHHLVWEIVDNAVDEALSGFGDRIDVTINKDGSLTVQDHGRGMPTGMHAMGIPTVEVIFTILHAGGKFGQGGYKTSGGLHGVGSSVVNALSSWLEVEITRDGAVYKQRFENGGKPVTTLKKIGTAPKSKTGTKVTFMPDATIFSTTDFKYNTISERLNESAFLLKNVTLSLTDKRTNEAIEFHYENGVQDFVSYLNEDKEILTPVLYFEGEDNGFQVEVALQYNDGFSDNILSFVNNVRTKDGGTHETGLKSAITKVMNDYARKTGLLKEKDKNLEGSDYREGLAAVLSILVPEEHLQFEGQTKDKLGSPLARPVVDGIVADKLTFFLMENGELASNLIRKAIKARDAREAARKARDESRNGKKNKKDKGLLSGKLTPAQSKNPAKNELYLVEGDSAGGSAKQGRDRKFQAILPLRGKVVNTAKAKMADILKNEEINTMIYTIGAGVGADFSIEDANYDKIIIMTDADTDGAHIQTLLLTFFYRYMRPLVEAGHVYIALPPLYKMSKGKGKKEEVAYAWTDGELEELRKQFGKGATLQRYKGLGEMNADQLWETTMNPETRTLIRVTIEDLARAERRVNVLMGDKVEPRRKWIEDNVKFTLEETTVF

The first test concerns the target S. pneumoniae Topoisomerase IV ATPase (ParE) (Streptococcus pneumoniae serotype 4, UniProt Q59961). Kind of test: S. pneumoniae Topoisomerase IV ATPase inhibition. Format: biochemical. Conditions: values marked * are an average of two or more data points. In a few lines: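 Malachite green/ammonium molybdate phosphate detection, A650. 1.25 nM ParE, 160 μM ATP, sheared salmon sperm DNA 5 μg/ml, 20 mM Tris pH 8.0, 8.0 mM MgCl2. Controls: 2% DMSO = 0%, 20 μM EDTA = 100% inhibition; IC50 over 10 concentrations.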
In the case of `O=C(O)[C@H]1C[C@H]1c1cccc(-c2cnc(Nc3ccc(F)c(Cl)c3)nc2-n2ccc(C(F)(F)F)n2)c1` [Example 576, (1S,2R)-2-(3-(2-(3-chloro-4-fluorophenvlamino)-4-(3-(trifluoromethyl)-1H-pyrazol-1-yl)pyrimidin-5-yl)phenyl)cyclopropanecarboxylic acid], the “% Inh (13 μM) of S. pneumoniae Topoisomerase IV ATPase” value was found to be 100%.

Staying with this test, now noted: values marked * are an average of two or more data points, read-out: % Inh (13 μM) of S. pneumoniae Topoisomerase IV ATPase.
For the compound `NC(=O)c1cncc(-c2cnc(Nc3ccc(F)c(Cl)c3)nc2NCCc2ccncc2)c1` [Example 474, 5-(2-[(3-chloro-4-fluorophenyl)amino]-4-{[2-(pyridin-4-yl)ethyl]amino}pyrimidin-5-yl)-pyridine-3-carboxamide], the inhibition at 13 µM amounted to 100%. On the same count and under the same terms, then `O=C(O)c1cccc(-c2cnc(Nc3ccc(F)c(Cl)c3)nc2-n2ccc(C(F)(F)F)n2)n1` [Example 877, 6-(2-(3-chloro-4-fluorophenylamino)-4-(3-(trifluoromethyl)-1H-pyrazol-1-yl)pyrimidin-5-yl)picolinic acid], with 100%. Still for that read-out and setting: then `CC(=O)c1cccc(Nc2ncc(-c3cccc(/C=C/C(=O)O)c3)c(-n3nc(C(F)(F)F)cc3C)n2)c1` [Example 689, (2E)-3-(3-{2-[(3-acetylphenyl)amino]-4-[5-methyl-3-(trifluoromethyl)-1H-pyrazol-1-yl]pyrimidin-5-yl}phenyl)prop-2-enoic acid], with 99%; and `COc1cccc(Nc2ncc(-c3cccc(/C=C/C(=O)O)c3)c(N3CCOCC3)n2)c1` [Example 451], with 70%; and `O=C(O)/C=C/c1cccc(-c2cnc(Nc3ccc(F)c(Cl)c3)nc2NCCc2cn[nH]c2)c1` [Example 268, (2E)-3-[3-(2-[(3-chloro-4-fluorophenyl)amino]-4-{[2-(1H-pyrazol-4-yl)ethyl]amino}pyrimidin-5-yl)phenyl]prop-2-enoic acid], with 83%. Still for that read-out and setting: under `CCOC(=O)c1cncc(-c2cnc(Nc3ccc(F)c(Cl)c3)nc2N2CCC(O)CC2)c1` [Example 117, ethyl 5-[2-[(3-chloro-4-fluorophenyl)amino]-4-(4-hydroxypiperidin-1-yl)pyrimidin-5-yl]pyridine-3-carboxylate] stands 73.4%; under `COC(=O)CC(=O)c1cncc(-c2cnc(Nc3ccc(F)c(Cl)c3)nc2N2CCOCC2)c1` [Example 1039, Methyl 3-(5-(2-(3-chloro-4-fluorophenylamino)-4-morpholinopyrimidin-5-yl)pyridin-3-yl)-3-oxopropanoate], 90%; under `O=C(O)c1cncc(-c2cnc(Nc3ccc(F)c(Cl)c3)nc2NCCc2cccnc2)c1` [Example 229, 5-[2-(3-Chloro-4-fluoro-phenylamino)-4-(2-pyridin-3-yl-ethylamino)-pyrimidin-5-yl]-nicotinic acid], 85%. As for `O=C(O)[C@@H]1CCCN1c1cccc(-c2cnc(Nc3ccc(F)c(Cl)c3)nc2-n2ccc(C(F)(F)F)n2)c1` [Example 599, 1-(3-{2-[(3-chloro-4-fluorophenyl)amino]-4-[3-(trifluoromethyl)-1H-pyrazol-1-yl]pyrimidin-5-yl}phenyl)-L-proline], the inhibition at 13 µM was 94%. Still for that read-out and setting: then `COc1ncc(-c2cnc(Nc3ccc(F)c(Cl)c3)nc2NC2CCOC2)cn1` (centres unmarked) [Example 940, N2-(3-chloro-4-fluorophenyl)-2′-methoxy-N4-(tetrahydrofuran-3-yl)-5,5′-bipyrimidine-2,4-diamine], with 76%. The same measure, in the same setting: then `CC(=O)N1CCN(c2nc(Nc3ccc(F)c(Cl)c3)ncc2-c2cccc(/C=C/C(=O)O)c2)CC1` [Example 288, (E)-3-(3-(4-(4-acetylpiperazin-1-yl)-2-(3-chloro-4-fluorophenylamino)-pyrimidin-5-yl)phenyl)acrylic acid], with 82.9%; and `Cc1cc(C)n(-c2nc(Nc3ccc(F)c(Cl)c3)ncc2-c2cncnc2)n1` [Example 82, N-(3-chloro-4-fluorophenyl)-4-(3,5-dimethyl-1H-pyrazol-1-yl)-5,5′-bipyrimidin-2-amine], with 80.1%. The same measure, in the same setting: under `O=C(O)/C=C/c1cccc(-c2cnc(Nc3ccc(F)c(Cl)c3)nc2NCCn2cccn2)c1` [Example 267, (2E)-3-[3-(2-[(3-chloro-4-fluorophenyl)amino]-4-{[2-(1H-pyrazol-1-yl)ethyl]amino}pyrimidin-5-yl)phenyl]prop-2-enoic acid] stands 87.3%; under `COc1cc(Nc2ncc(-c3cncc(C(=O)O)c3)c(N3CCOCC3)n2)ccc1F` [Example 441], 74%; under `COc1ncc(-c2cnc(Nc3cc(C)cc(F)c3)nc2-n2ccc(C(F)(F)F)n2)cc1C(=O)O` [Example 754, 5-{2-[(3-fluoro-5-methylphenyl)-amino]-4-[3-(trifluoromethyl)-1H-pyrazol-1-yl]pyrimidin-5-yl}-2-methoxypyridine-3-carboxylic acid], 100%. `COc1cc(Nc2ncc(-c3cnc(OC)c(C(=O)O)c3)c(-n3ccc(C(F)(F)F)n3)n2)cc(OC)c1` [Example 675, 5-{2-[(3,5-dimethoxyphenyl)amino]-4-[3-(trifluoromethyl)-1H-pyrazol-1-yl]pyrimidin-5-yl}-2-methoxypyridine-3-carboxylic acid]: the inhibition at 13 µM worked out at 100%. The same measure, in the same setting: under `COc1ncc(-c2cnc(Nc3ccc(F)c(Cl)c3)nc2NCC2CCN(C(=O)C3CC3)CC2)cn1` [Example 466, (4-((2-(3-chloro-4-fluorophenylamino)-2′-methoxy-5,5′-bipyrimidin-4-ylamino)methyl)piperidin-1-yl)(cyclopropyl)methanone] stands 78%; under `Cc1cc(C)cc(Nc2ncc(-c3cnc(OCCS(C)(=O)=O)c(C(=O)O)c3)c(-n3ccc(C(F)(F)F)n3)n2)c1` [Example 964], 40%; under `COc1cc(Cl)cc(Nc2ncc(-c3cnc(OC)c(C(=O)O)c3)c(-n3nc(C(F)(F)F)cc3C)n2)c1` [Example 759, 5-{2-[(3-chloro-5-methoxyphenyl)amino]-4-[5-methyl-3-(trifluoromethyl)-1H-pyrazol-1-yl]pyrimidin-5-yl}-2-methoxypyridine-3-carboxylic acid], 100%.

`COCCCNc1nc(Nc2ccc(F)c(Cl)c2)ncc1-c1nc(-c2cccnc2)cs1` [Example 499, N^2-(3-chloro-4-fluorophenyl)-N^4-(3-methoxypropyl)-5-[4-(pyridin-3-yl)-1,3-thiazol-2-yl]pyrimidine-2,4-diamine]: the inhibition at 13 µM was 34%. In the case of `O=C(O)c1cc2cc(-c3cnc(Nc4ccc(F)c(Cl)c4)nc3N3CCOCC3)ccc2s1` [Example 306, 5-(2-(3-chloro-4-fluorophenylamino)-4-morpholinopyrimidin-5-yl)benzo[b]thiophene-2-carboxylic acid], the inhibition at 13 µM is 84.8%. Turning to `O=C(O)c1cncc(-c2cnc(Nc3ccc(F)cc3)nc2N2CCOCC2)c1` [Example 435], the inhibition at 13 µM was determined as 51%.

For the compound `CCOC(=O)c1cncc(-c2cnc(Nc3ccc(F)c(Cl)c3)nc2NCc2ccco2)c1` [Example 110, ethyl 5-[2-[(3-chloro-4-fluorophenyl)amino]-4-(furan-2-ylmethylamino)pyrimidin-5-yl]pyridine-3-carboxylate], the inhibition at 13 µM worked out at 27.6%. Still for that read-out and setting: under `COc1cc(Nc2ncc(-c3cnc(OC)c(C(=O)NS(=O)(=O)C(C)C)c3)c(-n3nc(C(F)(F)F)cc3C)n2)cc(OC)c1` [Example 819, 5-{2-[(3,5-dimethoxyphenyl)amino]-4-[5-methyl-3-(trifluoromethyl)-1H-pyrazol-1-yl]pyrimidin-5-yl}-2-methoxy-N-(propan-2-ylsulfonyl)pyridine-3-carboxamide] stands 100%. Turning to `CCOC(=O)c1cncc(-c2cnc(Nc3ccc(F)c(Cl)c3)nc2NCc2ccncc2)c1` [Example 97, 5-{2-(3-Chloro-4-fluoro-phenylamino)-4-[(pyridin-4-ylmethyl)-amino]-pyrimidin-5-yl}-nicotinic acid ethyl ester], the inhibition at 13 µM turned out to be 75.9%. The same measure, in the same setting: under `Cc1cc(C(F)(F)F)nn1-c1nc(Nc2ccc(F)c(Cl)c2)ncc1-c1cncc(S(=O)(=O)N2CCOCC2)c1` [Example 1036] stands 100%; under `Cc1cc(C(F)(F)F)nn1-c1nc(Nc2ccc(F)c(Cl)c2)ncc1-c1cc(C(=O)O)c(=O)n(CCO)c1` [Example 1084, 5-(2-(3-Chloro-4-fluorophenylamino)-4-(5-methyl-3-(trifluoromethyl)-1H-pyrazol-1-yl)pyrimidin-5-yl)-1-(2-hydroxyethyl)-2-oxo-1,2-dihydropyridine-3-carboxylic acid], 100%; under `COc1cc(F)cc(Nc2ncc(-c3cc(C(=O)O)c(=O)n(C)c3)c(-n3ccc(C(F)(F)F)n3)n2)c1` [Example 920, 5-(2-(3-fluoro-5-methoxyphenylamino)-4-(3-(trifluoromethyl)-1H-pyrazol-1-yl)pyrimidin-5-yl)-1-methyl-2-oxo-1,2-dihydropyridine-3-carboxylic acid], 100%. The same measure, in the same setting: then `COc1cc(Nc2ncc(-c3cnc(OC)c(C(=O)NS(C)(=O)=O)c3)c(-n3ccc(C(F)(F)F)n3)n2)cc(OC)c1` [Example 901, 5-(2-(3,5-dimethoxyphenylamino)-4-(3-(trifluoromethyl)-1H-pyrazol-1-yl)pyrimidin-5-yl)-2-methoxy-N-(methylsulfonyl)nicotinamide], with 97%; and `COCCN1CCN(c2nc(Nc3ccc(F)c(Cl)c3)ncc2-c2cccc(/C=C/C(=O)O)c2)CC1` [Example 300, (E)-3-(3-(2-(3-chloro-4-fluorophenylamino)-4-(4-(2-methoxyethyl)piperazin-1-yl)pyrimidin-5-yl)phenyl)acrylic acid], with 82.3%; and `O=C(O)/C=C/c1cccc(-c2cnc(Nc3ccc(F)c([N+](=O)[O-])c3)nc2N2CCOCC2)c1` [Example 448], with 82%.
